Results published in BindingDB's records for doi:10.1016/j.ejmech.2018.10.048 (Touro University-California, 2019).

Assay: Inhibition of HIV1 gp41-induced cell-cell fusion between viral protein expressing human HL2/3 cells and TZM-bl target cells preincubated overnight with TZM-bl cells followed by co-incubation with HL2/3 cells for 6 hrs by luciferase reporter gene assay

Compound: COc1cccc(CN2CCc3ccc(-c4ccc5ccn(Cc6cccc(C(=O)O)c6)c5c4)cc32)c1
- IC50: 1 µM

Compound: COC(=O)c1cccc(Cn2ccc3ccc(-c4ccc5cnn(Cc6cccc(C(=O)O)c6)c5c4)cc32)c1
- IC50: 2.8 µM

Compound: COC(=O)c1cc(Cn2ccc3ccc(-c4ccc5ccn(Cc6cccc(C(=O)O)c6)c5c4)cc32)cc(C(=O)OC)c1
- IC50: 0.2 µM

Compound: CC(C)(C)OC(=O)Nc1cccc(Cn2ccc3ccc(-c4ccc5ccn(Cc6cccc(C(=O)O)c6)c5c4)cc32)c1
- IC50: 2 µM

Compound: Cn1ncc2ccc(-c3ccc4ccn(Cc5cc(F)cc(C(=O)O)c5)c4c3)cc21
- IC50: 7 µM

Compound: Cn1ccc2cc(F)c(-c3ccc4ccn(Cc5cc(F)cc(C(=O)O)c5)c4c3)cc21
- IC50: 2 µM

Compound: COC(=O)c1cc(F)cc(Cn2ccc3ccc(-c4ccc5ccn(Cc6cccc(C(=O)O)c6)c5c4)cc32)c1
- IC50: 0.8 µM

Compound: COc1cccc(Cn2ccc3cc(F)c(-c4ccc5ccn(Cc6cccc(C(=O)O)c6)c5c4)cc32)c1
- IC50: 3.5 µM

Compound: COc1cc(Cn2ccc3ccc(-c4ccc5ccn(Cc6cccc(C(=O)O)c6)c5c4)cc32)cc(C(=O)O)c1
- IC50: 8 µM

Compound: CC(=O)Nc1cccc(Cn2ccc3ccc(-c4ccc5ccn(Cc6cccc(C(=O)O)c6)c5c4)cc32)c1
- IC50: 1 µM

Compound: CC(C)(C)OC(=O)N1CCC(Cn2ccc3ccc(-c4ccc5ccn(Cc6cccc(C(=O)O)c6)c5c4)cc32)CC1
- IC50: 1.2 µM

Compound: Cc1ccc(S(=O)(=O)n2ccc3ccc(-c4ccc5ccn(Cc6cccc(C(=O)O)c6)c5c4)cc32)cc1
- IC50: 1.3 µM

Compound: Cn1cc2ccc(-c3ccc4ccn(Cc5cc(F)cc(C(=O)O)c5)c4c3)cc2n1
- IC50: 28 µM

Compound: Cn1ccc2ccc(-c3ccc4c(c3)N(Cc3cccc(C(=O)O)c3)CC4)cc21
- IC50: > 10 µM

Compound: COc1cccc(CNc2cccc(-c3ccc4ccn(Cc5cccc(C(=O)O)c5)c4c3)c2)c1
- IC50: > 10 µM

Compound: COC(=O)c1cccc(Cn2ncc3ccc(-c4ccc5ccn(Cc6cccc(C(=O)O)c6)c5c4)cc32)c1
- IC50: 0.3 µM

Compound: Cn1ccc2ccc(-c3ccc4ccn(Cc5cc(F)cc(C(=O)O)c5)c4c3)cc21
- IC50: 3.6 µM

Compound: O=C(O)c1cccc(Cn2ccc3ccc(-c4ccc5ccn(Cc6cccc([N+](=O)[O-])c6)c5c4)cc32)c1
- IC50: 2 µM

Compound: Nc1ccc(Cn2ccc3ccc(-c4ccc5ccn(Cc6cccc(C(=O)O)c6)c5c4)cc32)cc1
- IC50: 3 µM

Compound: Cn1ncc2ccc(-c3ccc4cnn(Cc5ccc(F)c(C(=O)O)c5)c4c3)cc21
- IC50: > 25 µM

Compound: CC(C)(C)OC(=O)n1ccc2ccc(-c3ccc4ccn(Cc5cccc(C(=O)O)c5)c4c3)cc21
- IC50: 0.8 µM

Compound: CN(C(=O)OC(C)(C)C)c1cccc(-c2ccc3ccn(Cc4cccc(C(=O)O)c4)c3c2)c1
- IC50: 5.9 µM

Compound: Cn1ccc2ccc(-c3ccc4cnn(Cc5cc(F)cc(C(=O)O)c5)c4c3)cc21
- IC50: 4.6 µM

Compound: COc1cccc(Cn2ccc3ccc(-c4ccc5c(C)cn(Cc6cccc(C(=O)O)c6)c5c4)cc32)c1
- IC50: 4 µM

Compound: Cc1cn(C(=O)OC(C)(C)C)c2cc(-c3ccc4ccn(Cc5cccc(C(=O)O)c5)c4c3)ccc12
- IC50: 2.6 µM

Compound: COC(=O)c1ccc(Cn2ccc3ccc(-c4ccc5ccn(Cc6cccc(C(=O)O)c6)c5c4)cc32)c(OC)c1
- IC50: 2 µM
